One assay deals with FeLV. The settings on record: 30 mg treatment over 14 days; cited from earlier work.
A further assay addresses T1, human plasma renin (Homo sapiens, UniProt P00797).
T1 construct: human plasma renin activity; from tissue; host or cells: human plasma
T1 sequence (P00797 67-406): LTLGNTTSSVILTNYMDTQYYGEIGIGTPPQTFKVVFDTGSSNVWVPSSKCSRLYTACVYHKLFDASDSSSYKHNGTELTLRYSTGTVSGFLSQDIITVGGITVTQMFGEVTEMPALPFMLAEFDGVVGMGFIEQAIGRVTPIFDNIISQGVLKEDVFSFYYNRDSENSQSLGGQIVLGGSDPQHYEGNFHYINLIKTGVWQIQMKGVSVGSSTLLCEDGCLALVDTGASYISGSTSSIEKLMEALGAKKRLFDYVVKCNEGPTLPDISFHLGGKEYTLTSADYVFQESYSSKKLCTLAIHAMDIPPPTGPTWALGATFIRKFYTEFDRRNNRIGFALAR
Put plainly: Antibody-trapping method of Poulsen and Jorgensen, human plasma renin activity. The format is biochemical. The following applies: antibody trapping test. An excerpt: In the antibody-trapping method of K. Poulsen and J. Jorgensen (J. Clin. Endocrin. Metab. 39, [1974] 816-825), they inhibit human plasma renin activity at a concentration of 10^-5 M to 10^-11 M.

As to `Cc1cn([C@H]2C[C@H](N=[N+]=[N-])[C@@H](CO)O2)c(=O)[nH]c1=O` [3'-azido-3'-deoxy-thymidine], in the assay on FeLV, the cure result is “no cure was achieved” and the “reduction of FeLV-titres by a factor” value is on record as 10.

On to `CCCC[C@H](NC(=O)[C@H](Cc1cccs1)NC(=O)COCCOCCOCCOC)C(=O)N[C@@H](CC1CCCCC1)[C@@H](O)CC(=O)N[C@@H](CC(C)C)C(=O)NCc1ccccn1` [Example 46, 3EG-Thala-Nle-Chatin-Leu-α-Pic], for which, at human plasma renin, the IC50 (usually the concentration that inhibits the measured activity by half) turned out to be 1.5 nM, the highest inhibiting concentration is reported as 15 nM/l and the lowest inhibiting concentration was 0,15 nM/l.

The record behind these values is patent US5045537A, “Hydrophilic renin inhibitors, their preparation and use” (Sandoz Ltd., priority 1987, dated 1991).
